Consider two compounds from ChEMBL document CHEMBL3044753, “Polyamines May Modulate Both G Protein-Coupled Receptors and G Proteins” (Med Chem Res, 2004).

For assay [1], the system named is Left cardiac atrium. Kind of assay: Negative ionotropic activity in electrically-paced Cavia porcellus (guinea pig) left atrium measured after 60 min by isometric transducer analysis in presence of DPCPX. Type of assay: functional, tissue-based.
Assay [2] has as its system Left cardiac atrium. Kind of assay: Negative ionotropic activity in electrically-paced Cavia porcellus (guinea pig) left atrium measured after 60 min by isometric transducer analysis in presence of ANR 83. Type of assay: functional, tissue-based.
The target of assay [3] is T1, Muscarinic acetylcholine receptor M5 (Homo sapiens) (UniProt P08912).
T1 sequence (whole entry): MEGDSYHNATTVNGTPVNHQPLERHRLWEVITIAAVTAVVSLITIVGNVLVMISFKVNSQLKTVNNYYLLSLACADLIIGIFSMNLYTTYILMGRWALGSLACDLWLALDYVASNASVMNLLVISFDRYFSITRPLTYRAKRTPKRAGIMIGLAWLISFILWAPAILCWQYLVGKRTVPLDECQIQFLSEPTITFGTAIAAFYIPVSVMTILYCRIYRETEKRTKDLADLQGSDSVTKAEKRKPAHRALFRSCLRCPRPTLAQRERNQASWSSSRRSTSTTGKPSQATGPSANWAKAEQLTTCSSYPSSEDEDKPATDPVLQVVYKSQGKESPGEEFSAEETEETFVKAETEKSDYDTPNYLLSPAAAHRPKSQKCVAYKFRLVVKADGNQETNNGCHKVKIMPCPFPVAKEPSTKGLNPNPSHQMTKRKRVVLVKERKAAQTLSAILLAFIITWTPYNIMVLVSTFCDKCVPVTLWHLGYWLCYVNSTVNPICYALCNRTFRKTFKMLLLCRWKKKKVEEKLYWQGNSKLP
Kind of assay: Binding affinity to Homo sapiens (human) recombinant muscarinic M5 receptor expressed in CHO cells assessed as [35S]GTPgammaS binding. The class given is functional, cell-based.

The subject of assay [4] is Right cardiac atrium. Kind of assay: Negative ionotropic activity in electrically-paced Cavia porcellus (guinea pig) right atrium measured after 60 min by isometric transducer analysis in presence of pimozide. Type of assay: functional, tissue-based.
For assay [5], the system named is Left cardiac atrium. Kind of assay: Negative ionotropic activity in electrically-paced Cavia porcellus (guinea pig) left atrium measured after 60 min by isometric transducer analysis in presence of benextramine. The class given is functional, tissue-based.
Assay [6] concerns the target T2, Muscarinic acetylcholine receptor M2 (Homo sapiens) (UniProt P08172).
T2 sequence (whole entry): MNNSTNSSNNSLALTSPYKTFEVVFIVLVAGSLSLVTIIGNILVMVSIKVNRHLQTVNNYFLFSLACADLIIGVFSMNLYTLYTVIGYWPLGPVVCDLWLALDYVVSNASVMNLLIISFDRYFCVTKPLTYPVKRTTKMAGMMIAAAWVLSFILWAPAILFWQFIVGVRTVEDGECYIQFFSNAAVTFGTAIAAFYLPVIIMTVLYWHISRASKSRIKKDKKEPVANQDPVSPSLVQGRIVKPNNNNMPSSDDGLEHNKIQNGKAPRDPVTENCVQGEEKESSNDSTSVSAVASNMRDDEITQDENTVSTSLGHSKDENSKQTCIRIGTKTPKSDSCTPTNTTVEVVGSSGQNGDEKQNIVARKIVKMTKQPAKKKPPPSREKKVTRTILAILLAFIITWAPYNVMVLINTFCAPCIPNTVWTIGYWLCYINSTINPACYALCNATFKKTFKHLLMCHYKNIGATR
Kind of assay: Allosteric modulation of Homo sapiens (human) recombinant muscarinic M2 receptor expressed in CHO cells assessed as inhibition of N-[3H]methylscopalamine dissociation incubated at 1 hr post N-[3H]methylscopalamine addition measured after 5 min by filter binding assay. The class given is cell-based.

Assay [7] deals with T3, Muscarinic acetylcholine receptor M4 (Homo sapiens) (UniProt P08173).
T3 sequence (whole entry): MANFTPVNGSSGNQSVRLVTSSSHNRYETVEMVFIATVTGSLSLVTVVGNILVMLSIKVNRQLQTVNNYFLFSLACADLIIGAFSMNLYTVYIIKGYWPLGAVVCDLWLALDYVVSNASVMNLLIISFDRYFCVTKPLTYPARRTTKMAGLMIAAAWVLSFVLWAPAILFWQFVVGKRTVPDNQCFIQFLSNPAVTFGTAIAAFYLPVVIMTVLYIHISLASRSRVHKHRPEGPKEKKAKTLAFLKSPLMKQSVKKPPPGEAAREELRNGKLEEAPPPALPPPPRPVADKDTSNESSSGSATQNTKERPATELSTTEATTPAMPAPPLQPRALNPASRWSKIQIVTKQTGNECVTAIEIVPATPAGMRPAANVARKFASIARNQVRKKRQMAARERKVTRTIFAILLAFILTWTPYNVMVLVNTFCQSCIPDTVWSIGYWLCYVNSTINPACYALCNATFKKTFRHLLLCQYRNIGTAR
Kind of assay: Allosteric modulation of Homo sapiens (human) recombinant muscarinic M4 receptor expressed in CHO cells assessed as inhibition of carbachol-induced [35S]GTPgammaS binding. The class given is functional, cell-based. (In general: GTPγS resists hydrolysis and so accumulates on activated G proteins.)

Assay [8] has as its system Left cardiac atrium. Kind of assay: Negative ionotropic activity in electrically-paced Cavia porcellus (guinea pig) left atrium measured after 60 min by isometric transducer analysis in presence of naloxane. The class given is functional, tissue-based.
In assay [9] the target is T2, Muscarinic acetylcholine receptor M2 (Homo sapiens). Kind of assay: Allosteric modulation of Homo sapiens (human) recombinant muscarinic M2 receptor expressed in CHO cells assessed as inhibition of carbachol-induced [35S]GTPgammaS binding. Type of assay: functional, cell-based.
Assay [10] has as its target T4, Muscarinic acetylcholine receptor M1 (Homo sapiens) (UniProt P11229).
T4 sequence (whole entry): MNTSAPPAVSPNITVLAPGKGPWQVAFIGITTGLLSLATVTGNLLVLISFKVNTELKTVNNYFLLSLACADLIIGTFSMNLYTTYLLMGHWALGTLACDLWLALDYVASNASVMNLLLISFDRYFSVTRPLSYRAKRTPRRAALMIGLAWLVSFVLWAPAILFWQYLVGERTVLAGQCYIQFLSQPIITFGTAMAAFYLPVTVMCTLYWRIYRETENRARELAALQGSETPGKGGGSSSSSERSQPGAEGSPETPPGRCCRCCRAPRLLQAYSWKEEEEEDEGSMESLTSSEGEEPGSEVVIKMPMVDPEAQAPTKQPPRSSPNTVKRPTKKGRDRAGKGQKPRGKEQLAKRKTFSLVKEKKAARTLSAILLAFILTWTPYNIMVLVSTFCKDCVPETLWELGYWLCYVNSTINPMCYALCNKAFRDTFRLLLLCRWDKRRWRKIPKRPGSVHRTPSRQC
Kind of assay: Binding affinity to Homo sapiens (human) recombinant muscarinic M1 receptor expressed in CHO cells assessed as [35S]GTPgammaS binding. Type of assay: functional, cell-based.

Assay [11] deals with Left cardiac atrium. Kind of assay: Negative ionotropic activity in electrically-paced Cavia porcellus (guinea pig) left atrium measured after 60 min by isometric transducer analysis in presence of dihydroergocristine. The class given is functional, tissue-based.
In assay [12] the test system is Right cardiac atrium. Kind of assay: Negative ionotropic activity in electrically-paced Cavia porcellus (guinea pig) right atrium measured after 60 min by isometric transducer analysis in presence of benzalkonium. Type of assay: functional, tissue-based.
In assay [13] the test system is Right cardiac atrium. Kind of assay: Negative […] activity in electrically-paced Cavia porcellus (guinea pig) right atrium assessed as effect on force measured after 60 min by isometric transducer analysis in absence of benextramine/4-DAMP mustard relative to N-dodecyl lysine amide. Type of assay: functional.
Assay [14] concerns Left cardiac atrium. Kind of assay: Negative ionotropic activity in electrically-paced Cavia porcellus (guinea pig) left atrium measured after 60 min by isometric transducer analysis in presence of AM 630. Type of assay: functional, tissue-based.
Assay [15] deals with Right cardiac atrium. Kind of assay: Negative […] activity in electrically-paced Cavia porcellus (guinea pig) right atrium assessed as effect on force measured after 60 min by isometric transducer analysis in absence of benextramine/4-DAMP mustard. The class given is functional, tissue-based. The following applies: 1 h.

The source made the active and inactive calls. No cut-off for these calls is given here.

By EC50 is commonly meant the concentration needed to bring the measured effect to its halfway point.

As for `COc1ccccc1CN1CCC(C2CCN(CCCCCCCCN3CCC(C4CCN(Cc5ccccc5OC)CC4)CC3)CC2)CC1` [PIPERTRAMINE], the outcome (with Left cardiac atrium [1]; in the assay on Left cardiac atrium [2]; in the assay on Right cardiac atrium [4]; in the assay on Left cardiac atrium [5]; in assay [7]; in the assay with Left cardiac atrium [8]) was Active. Further, the outcome (in assay [9]; in the assay on Left cardiac atrium [11]; in the assay with Left cardiac atrium [14]) was Active. Moreover, the outcome (in [3]; in [10]; in the assay with Right cardiac atrium [12]) was inactive. The INH in assay [6] was found to be 1.57 µM. Also, the Efficacy in the assay on Right cardiac atrium [13] is recorded as 71%. Also, the EC50 with Right cardiac atrium [15] was 0.275 nM.

On to `COc1ccccc1CN1CCC(C2CCN(C(=O)CCCCCCC(=O)N3CCC(C4CCN(Cc5ccccc5OC)CC4)CC3)CC2)CC1` [PIPERTRAMINE AMIDE], for which the outcome (in the assay on Left cardiac atrium [1]; in the assay with Left cardiac atrium [2]; in the assay with Right cardiac atrium [4]; with Left cardiac atrium [5]; in [7]; in the assay on Left cardiac atrium [8]) was Active. Besides, the result (in assay [9]; in the assay with Left cardiac atrium [11]; in the assay on Left cardiac atrium [14]) was Active. The result (in assay [3]; in assay [10]; with Right cardiac atrium [12]) was inactive. The INH in assay [6] came to 1.71 µM. In the assay with Right cardiac atrium [13], the Efficacy is 78%. In the assay with Right cardiac atrium [15], the EC50 is 3.89 nM.
